Structures can show the parent of a compound that is named as a salt.
Assay: Stability study of crystalline vs amorphous isavuconazonium sulfate: impurity content by HPLC after storage
Format: physicochemical
Details: for Impurity Compound IV content / Impurity Compound IX content / Impurity Compound VI content / Impurity Compound VII content / Impurity Compound VIII content / Impurity Compound X content: HPLC; for Storage stability (in words): 3 months at −20° C. and 2° to 8° C.
Procedure: High performance liquid chromatography (HPLC) was performed with the conditions described below for detecting chemical purity:
Column: Xterra MS C18, 150×4.6 mm, 3.5μ; Column Temperature: 45° C., Mobile phase: Mobile Phase A; 0.1% Perchloric acid in water: Mobile Phase B=Methanol
Diluent: Methanol: 0.3% Sodium bisulphate (70:30 v/v); Flow Rate: 1.0 mL/Minutes, Detection: 260 nm; Injection Volume: 20 μL.
Comparative stability data was generated for crystalline isavuconazonium sulfate (Form GL-1) and the amorphous form of isavuconazonium sulfate (prepared as described in Comparative Example 1) stored at a temperature of −20° C. and from 2° to 8° C. for three (3) months (i.e., 12 weeks). In particular, the crystalline isavuconazonium sulfate (Form GL-1) obtained as per Example 3 and the amorphous form of isavuconazonium sulfate of Comparative Example 1 were taken in an appropriate amount, and packed in a transparent polyethylene bag. The bag was sealed under vacuum and then enclosed in a black LDPE (Low-density polyethylene) bag which in turn is kept in triple laminated aluminium pouches sealed at three sides. The fourth side of the bag is then sealed under vacuum and kept in a HDPE (High-density polyethylene) container, and stored at −20° C. and from 2° to 8° C. for 3 months (i.e., 12 weeks). Both materials were analyzed after 3 months of storage by the HPLC method described above.

[1] = 3 Month at 2°-8° C., monosulfate salt
[2] = 3 Month at −20° C., monosulfate salt

SMILES | Impurity Compound IV content [1] [%] | Impurity Compound IX content [1] [%] | Impurity Compound VI content [1] [%] | Impurity Compound VII content [1] [%] | Impurity Compound VIII content [1] [%] | Impurity Compound X content [1] [%] | Impurity Compound IV content [2] [%] | Impurity Compound IX content [2] [%] | Impurity Compound VI content [2] [%] | Impurity Compound VII content [2] [%] | Impurity Compound VIII content [2] [%] | Impurity Compound X content [2] [%] | Impurity Compound IV content (Initial, monosulfate salt) [%] | Impurity Compound IX content (Initial, monosulfate salt) [%] | Impurity Compound VI content (Initial, monosulfate salt) [%] | Impurity Compound VII content (Initial, monosulfate salt) [%] | Impurity Compound VIII content (Initial, monosulfate salt) [%] | Impurity Compound X content (Initial, monosulfate salt) [%] | also measured
CNCC(=O)OCc1cccnc1N(C)C(=O)OC(C)n1cn[n+](C[C@](O)(c2cc(F)ccc2F)[C@@H](C)c2nc(-c3ccc(C#N)cc3)cs2)c1 (stereo partly drawn) [Amorphous isavuconazonium sulfate prepared as per comparativ] [(2-{[(1-{1-[(2R,3R)-3-[4-(4-cyanophenyl)-1,3-thiazol-2-yl]-2-(2,5-difluorophenyl)-2-hydroxybutyl]-1H-1,2,4-triazol-4-ium-4-yl}ethoxy)carbonyl](methyl)amino}pyridin-3-yl)methyl-N-methylglycinate monosulfate salt, reference compound] | 0.76 | 2.5 | 0.33 | 0.12 | 0.44 | 0.04 | 0.41 | 1.26 | 0.10 | 0.12 | 0.44 | 0.03 | 0.21 | 0.51 | 0.04 | 0.12 | 0.44 | 0.03 | Stability of the solid form (in words) (generates impurities of formulae IV, VI, VII, VIII, IX, X and XI): unstable
CNCC(=O)OCc1cccnc1N(C)C(=O)OC(C)n1cn[n+](C[C@](O)(c2cc(F)ccc2F)[C@@H](C)c2nc(-c3ccc(C#N)cc3)cs2)c1 (stereo partly drawn) [Crystalline isavuconazonium sulfate (Form GL-1) of Example 3] [(2-{[(1-{1-[(2R,3R)-3-[4-(4-cyanophenyl)-1,3-thiazol-2-yl]-2-(2,5-difluorophenyl)-2-hydroxybutyl]-1H-1,2,4-triazol-4-ium-4-yl}ethoxy)carbonyl](methyl)amino}pyridin-3-yl)methyl-N-methylglycinate monosulfate salt] | 0.07 | 0.13 | 0.03 | 0.08 | 0.02 | 0.07 | 0.05 | 0.09 | 0.02 | 0.08 | 0.03 | 0.08 | 0.03 | 0.09 | 0.01 | 0.08 | 0.03 | 0.05 | Storage stability (in words) (listed as Form GL-1, monosulfate salt): more stable compared to the amorphous form of isavuconazonium sulfate; Storage stability (in words) (listed as crystalline isavuconazonium sulfate (Form GL-1), monosulfate salt): stable at 3 months; Period over which stability is maintained (stored at −20° C. and 2° to 8° C., sealed under vacuum): ≥ 3 months
